Here are results for five molecules from US11254700B2, “GSK-3β inhibitors and use thereof in methods of treatment” (UNIVERSITY OF HAWAII, priority 2017, dated 2022).

The structures appear in SMILES notation. “Also recorded” adds a separate entry of the source.

One data set deals with GSK-3β (Homo sapiens, UniProt P49841). Put plainly: Kinase luminescent assay (ADP-Glo), GSK-3β inhibition. Type of data set: biochemical. The following applies: 25 μM ATP, 1 hour, room temperature; mean of quadruplicate of two experiments; read-out: IC50 against GSK-3β. The procedure: Kinase Luminescent Assay.
Kinase inhibition was assessed with the ADP-Glo Kinase Assay. […] The reaction mixture was incubated for 1 hour at room temperature followed by the addition of the ADP-Glo′ reagents according to the manufacturer's protocol. The kinase inhibitor staurosporine was used at 1 μM as a reference control. Each data point was collected in quadruplicate of two independent experiments.
In general terms: ADP-Glo turns the ADP formed in a reaction into a luminescent signal.

The next data set can be described thus: in vitro. The settings on record: for Pe / R (percent recovery): 20 μM; for permeability compared to isoorientin 1: 5-hour incubation. The procedure: Samples were run in quadruplicate.
Oral administration is noninvasive and is preferred for chronical diseases such as Alzheimer's disease and other CNS disorders. […] In the PAMPA model, the amount of target compounds diffused from a donor compartment to an acceptor compartment through a tri-layer phospholipid pre-coated membrane are measured to assess oral-absorption potential of drug candidates. In the present study, 1, 4, 9, 17, 21 and 30 were evaluated with the PAMPA assay.

Data set [1] deals with GSK-3β-mediated tau phosphorylation (pS396) in SH-SY5Y lysate. Description: Whole-cell lysate GSK-3β assay with human Tau pS396 ELISA. The class given is biochemical. The settings on record: 2, 10 and 50 μM, 2 hours, 37° C., lysate with 0.25% GSK-3β. The procedure:
Whole-Cell Lysate GSK-3β Assay.
The assay procedure was followed as described (Liang, et al. (2016) ACS Chem. Neurosci. 7:912-923). SH-SY5Y cells were washed with phosphate-buffered saline (PBS) and lysed with cell extraction buffer containing 10 mM Tris, pH 7.4, 100 mM NaCl, 1 mM EDTA, 1 mM EGTA, 1 mM NaF, 20 mM Na4P2O7, 2 mM Na3VO4, 1% Triton X-100, 10% glycerol, 0.1% sodium dodecyl sulfate (SDS), 0.5% sodium deoxycholate, 1 mM phenylmethanesulfonyl fluoride (PMSF) and a protease inhibitor cocktail. Lysate was diluted with kinase buffer (40 mM Tris, pH 7.5, 20 mM MgCl2, 50 μM DTT, 400 μM ATP) to afford a concentration of 5 μg/μL of total protein, and split into aliquots. Recombinant human GSK-3β was fortified into lysate aliquots to a final concentration of 0.25% (wt/wt) of total protein. A lysate aliquot fortified with heat-inactivated GSK-3β was used as a negative control. The fortified lysate aliquots were incubated with test sample or 5% DMSO vehicle at 37° C. for 2 hours followed by ELISA analysis.
The quantitative determination of phosphorylated human tau at GSK-3β specific pS396 site was conducted by taking 50 μL diluted cell lysate and using a specific antibody against human tau [pS396] in a sandwich ELISA according to the manufacturer's protocol. Tau phosphorylation was quantified by measuring the absorbance at 450 nm in a microtiter plate reader. The analysis was collected in quadruplicate of two independent experiments.

Where [2] appears, read: pH 7.4, 5 hours, room temperature, mean ±SD.

Chain of GSK-3β (P49841 whole entry): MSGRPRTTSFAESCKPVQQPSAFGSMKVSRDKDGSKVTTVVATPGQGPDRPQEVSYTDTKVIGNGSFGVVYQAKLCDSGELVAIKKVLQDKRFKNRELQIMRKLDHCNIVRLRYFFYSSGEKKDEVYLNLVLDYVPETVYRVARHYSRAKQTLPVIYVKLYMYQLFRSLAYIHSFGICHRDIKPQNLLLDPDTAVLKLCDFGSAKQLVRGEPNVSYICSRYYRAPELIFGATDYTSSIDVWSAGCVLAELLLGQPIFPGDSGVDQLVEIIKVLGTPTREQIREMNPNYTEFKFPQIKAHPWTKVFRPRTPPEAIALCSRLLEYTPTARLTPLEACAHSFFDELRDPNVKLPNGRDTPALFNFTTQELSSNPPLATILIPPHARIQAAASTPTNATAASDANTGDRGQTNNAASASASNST

For `O=c1cc(-c2ccc(O)c(O)c2)oc2cc(O)cc(O)c12` [Compound 4, luteolin, reference compound], the IC50 on GSK-3β was found to be 3.1 µM. In the data set “in vitro” (PAMPA, 5 h, pH 7.4), the Pe is 1.42 ± 0.07 ×10^−6 cm/s and the “R (percent recovery)” value is 43%. The Papp at 5 h, 20 µM in “in vitro” (PAMPA, pH 7.4) fell in the range of 1 to 1.5 ×10⁻⁶ cm/s.

Regarding `COc1ccc(-c2cc(=O)c3c(OC)c([C@@H]4O[C@H](C(=O)NC(C)C)[C@@H](O)[C@H](O)[C@H]4O)c(OC)cc3o2)cc1OC` [Compound 9, (2S,3S,4R,5R,6S)-6-(2-(3,4-Dimethoxyphenyl)-5,7-dimethoxy-4-oxo-4H-chromen-6-yl)-3,4,5-trihydroxy-N-isopropyltetrahydro-2H-pyran-2-carboxamide], the IC50 on GSK-3β is 5.4 ± 0.1 µM. For the same molecule, the “GSK-3β-mediated tau hyperphosphorylation at pS396” value in data set [1] is “effectively attenuated tau hyperphosphorylation in a dose-dependent manner; also recorded: attenuate GSK-3β-mediated tau phosphorylation”. Besides, in “in vitro” (pH 7.4, 5 hours), the “R (percent recovery)” value is given as 46%. The Pe in the data set “in vitro” (setting [2]) was 1.55 ± 0.06 ×10^−6 cm/s. The “permeability compared to isoorientin 1” value in the data set “in vitro” was “significant increase in permeability”. Besides, the Permeability classification entry in the data set “in vitro” (PAMPA) was “high (high (Pe > 1.5 × 10^−6 cm/s))”.

Turning to `COc1ccc(-c2cc(=O)c3c(OC)c([C@@H]4O[C@H](C(=O)NC5CCCCC5)[C@@H](O)[C@H](O)[C@H]4O)c(OC)cc3o2)cc1OC` [Compound 17, (2S,3S,4R,5R,6S)—N-Cyclohexyl-6-(2-(3,4-dimethoxyphenyl)-5,7-dimethoxy-4-oxo-4H-chromen-6-yl)-3,4,5-trihydroxytetrahydro-2H-pyran-2-carboxamide], at GSK-3β, the IC50 was found to be 9 ± 1.3 µM. Moreover, in data set [1], the “GSK-3β-mediated tau hyperphosphorylation at pS396” value is recorded as “effectively attenuated tau hyperphosphorylation in a dose-dependent manner; also recorded: attenuate GSK-3β-mediated tau phosphorylation”. Moreover, in the data set “in vitro” (pH 7.4, 5 hours), the “R (percent recovery)” value is reported as 20%. In the data set “in vitro” (setting [2]), the Pe is reported as 1.77 ± 0.07 ×10^−6 cm/s. Further, the “permeability compared to isoorientin 1” value in the data set “in vitro” is given as “significant increase in permeability”. In “in vitro” (PAMPA), the Permeability classification result was “high (high (Pe > 1.5 × 10^−6 cm/s))”.

For the molecule `COc1ccc(-c2cc(=O)c3c(OC)c([C@@H]4O[C@H](C(=O)NCc5ccccc5)[C@@H](O)[C@H](O)[C@H]4O)c(OC)cc3o2)cc1OC` [Compound 21, (2S,3S,4R,5R,6S)-6-(2-(3,4-Dimethoxyphenyl)-5,7-dimethoxy-4-oxo-4H-chromen-6-yl)-3,4,5-trihydroxy-N-benzyltetrahydro-2H-pyran-2-carboxamide], the IC50 at GSK-3β was 15.8 ± 1.2 µM. Moreover, in data set [1], the “GSK-3β-mediated tau hyperphosphorylation at pS396” value is on record as “effectively attenuated tau hyperphosphorylation in a dose-dependent manner; also recorded: attenuate GSK-3β-mediated tau phosphorylation”. In the data set “in vitro” (pH 7.4, 5 hours), the “R (percent recovery)” value came to 30%. Besides, in the data set “in vitro” (setting [2]), the Pe is on record as 1.35 ± 0.08 ×10^−6 cm/s. For the same molecule, the “permeability compared to isoorientin 1” value in “in vitro” was “significant increase in permeability”. The Permeability classification result in the data set “in vitro” (PAMPA) is recorded as “medium (medium (1.0 × 10^−6 cm/s ≤ Pe ≤ 1.5 × 10^−6 cm/s))”.

`CNCCCN1c2ccccc2CCc2ccccc21` [Desipramine, reference compound]: in “in vitro” (PAMPA, 5 h, pH 7.4), the Pe is on record as 13.43 ± 0.91 ×10^−6 cm/s and the “R (percent recovery)” value is on record as 96%.

A word on the IC50: it is the concentration that inhibits the measured activity by half. The Papp is the rate of passage across a membrane or cell layer, normalised by area and donor concentration. Lower therefore signals slow passage.
